Measured values taken from patent publication US9403855B2 (priority 2010, dated 2016).
“And” between values parts separate entries of the source, which are not always exact repeats. Equal entries are not always repeated.

Legend:
[1] = test system: 274H influenza virus (WSN), immobilized; assay type: binding
[2] = test system: mixed 293T cells expressing 274H and 274Y neuraminidase of A/Hanoi/30408/2005 (H5N1); assay type: binding
[3] = test system: wild type (274H) neuraminidase of A/Hanoi/30408/2005 (H5N1) on 293T cells; assay type: binding
[4] = test system: A/Vietnam/1194/2004 RG14 (H5N1); assay: microbe, parasite or virus in culture; assay type: cell-based, Influenza virus A/Vietnam/1194/2004 RG14 (H5N1); settings: Influenza A virus, H5N1, read-out: EC50 (anti-influenza activity)
[5] = test system: A/WSN/1933 (H1N1); assay: microbe, parasite or virus in culture; assay type: cell-based, Influenza virus A/WSN/1933 (H1N1); settings: Influenza A virus, read-out: EC50 (anti-influenza activity)
[6] = test system: A/California/7/2009 (pandemic H1N1); assay: microbe, parasite or virus in culture; assay type: cell-based, Influenza virus A/California/7/2009 (pandemic H1N1); settings: Influenza A virus, H1N1, read-out: EC50 (anti-influenza activity)
[7] = test system: A/Udorn/307/1972 (H3N2); assay: microbe, parasite or virus in culture; assay type: cell-based, Influenza virus A/Udorn/307/1972 (H3N2); settings: Influenza A virus, H3N2, read-out: EC50 (anti-influenza activity)
[8] = in vitro; settings: human
[9] = target: neuraminidase of A/Udorn/307/1972 (H3N2) (Influenza A virus, UniProt P0DOF6); assay: biochemical; set-up: species or system Influenza virus A/Udorn/307/1972 (H3N2)
Sequence of neuraminidase of A/Udorn/307/1972 (H3N2) (P0DOF6 whole entry, looked up): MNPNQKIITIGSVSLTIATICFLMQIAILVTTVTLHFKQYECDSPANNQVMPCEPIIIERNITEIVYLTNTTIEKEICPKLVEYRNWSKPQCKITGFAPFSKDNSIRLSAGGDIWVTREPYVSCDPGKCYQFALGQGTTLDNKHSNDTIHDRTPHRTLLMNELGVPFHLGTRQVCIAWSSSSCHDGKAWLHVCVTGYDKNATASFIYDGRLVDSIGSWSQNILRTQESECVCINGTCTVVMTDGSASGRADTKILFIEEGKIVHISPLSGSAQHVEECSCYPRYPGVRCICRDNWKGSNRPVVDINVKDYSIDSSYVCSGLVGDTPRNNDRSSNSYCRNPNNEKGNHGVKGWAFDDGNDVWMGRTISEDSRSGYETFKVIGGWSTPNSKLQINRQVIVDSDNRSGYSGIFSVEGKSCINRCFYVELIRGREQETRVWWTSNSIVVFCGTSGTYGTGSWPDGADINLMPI

[10] = target: neuraminidase of A/California/7/2009 (pandemic H1N1) (Influenza A virus, UniProt C3W6G3); assay: biochemical; set-up: species or system Influenza virus A/California/7/2009 (pandemic H1N1)
[11] = target: neuraminidase of A/WSN/1933 (H1N1) (Influenza A virus, UniProt P03470); assay: biochemical; set-up: species or system Influenza virus A/WSN/1933 (H1N1)
Sequence of neuraminidase of A/WSN/1933 (H1N1) (P03470 whole entry, looked up): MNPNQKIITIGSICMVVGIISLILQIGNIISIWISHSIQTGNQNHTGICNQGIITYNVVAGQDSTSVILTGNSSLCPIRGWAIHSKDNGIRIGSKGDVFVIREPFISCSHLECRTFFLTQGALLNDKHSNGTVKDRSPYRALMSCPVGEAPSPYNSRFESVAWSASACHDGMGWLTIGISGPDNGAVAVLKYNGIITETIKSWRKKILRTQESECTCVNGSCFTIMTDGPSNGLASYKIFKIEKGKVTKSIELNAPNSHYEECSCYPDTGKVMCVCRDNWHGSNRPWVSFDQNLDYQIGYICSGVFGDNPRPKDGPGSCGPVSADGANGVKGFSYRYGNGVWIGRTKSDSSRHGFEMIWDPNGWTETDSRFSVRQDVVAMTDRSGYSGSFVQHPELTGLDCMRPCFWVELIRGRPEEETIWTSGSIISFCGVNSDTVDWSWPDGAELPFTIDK

[12] = in vivo; cited from earlier work

SMILES	melting point [°C]	residual ZB binding in OC competition [1]	percentage of ZB labeled cells [2]	percentage of ZB labeled cells [3] [%]	EC50 [4] [nM]	EC50 [5] [nM]	EC50 [6] [nM]	EC50 [7] [nM]	CC50 [8] [nM]	IC50 [9] [nM]	IC50 [10] [nM]	IC50 [11] [nM]	Bioavailability [12] [%]
CC(=O)N[C@H]1[C@H]([C@H](OC(=O)NCc2cn(CCCCCNC(=O)CCCCC3SC[C@@H]4NC(=O)N[C@H]34)nn2)[C@H](O)CO)OC(C(=O)O)=C[C@@H]1NC(=N)N (stereo partly shown) [ZB]	170 to 172	about 3%	84.4% and 84.62% and 86.07% and 83.58%	83.95	–	–	–	–	–	–	–	–	–
CCC(CC)O[C@@H]1C=C(C(=O)O)C[C@H](N)[C@H]1NC(C)=O [Oseltamivir acid, oseltamivir carboxylic acid, reference compound]	–	–	–	–	1250 ± 440	12.2 ± 2.3	76	3 ± 1.8	> 100000	–	–	–	–
CC(=O)N[C@H]1[C@H]([C@H](O)[C@H](O)CO)OC(P(=O)(O)O)=C[C@@H]1NC(=N)N [1b, (5-Acetamido-4-guanidino-6-(1,2,3-hydroxy)propyl-4,5,6-trihydropyran-2-yl) phosphonic acid]	–	–	–	–	1700 ± 500	2.4	26.5	32 ± 23	> 50000	5.2	0.8	1.2	–
CC(=O)N[C@H]1[C@H]([C@H](O)[C@H](O)CO)OC(P(=O)(O)O)=C[C@@H]1N [1a, (5-Acetamido-4-amino-6-(1,2,3-hydroxy)propyl-4,5,6-trihydropyran-2-yl) phosphonic acid]	–	–	–	–	978	1.3	20.3	55	> 30000	6.4	0.9	0.65	–
CC(=O)N[C@H]1[C@H]([C@H](O)[C@H](O)CO)OC(C(=O)O)=C[C@@H]1N=C(N)N [Zanamivir, reference compound]	–	–	–	–	16400 ± 2980	23.5 ± 8.5	267	41 ± 6	> 100000	–	–	–	2
